Patent US20230092232A1, “COMPOUNDS THAT MODULATE ANTI-TUMOR IMMUNITY AND METHODS OF DOING THE SAME” (University of Florida Research Foundation, Incorporated, priority 2020, published 2023)
“Also recorded” adds a separate entry of the source.

Columns and labels:
[1] = cited from earlier work
[2] = system: peripheral blood mononuclear cells from hypersensitive HLA-B*57.01+ patients; settings: cultured with abacavir in vitro; cited from earlier work
[3] = biological target: HLA-B*57:01 (Homo sapiens, UniProt P01889, D201E/D98Y/E176V/E187L/E204Q/E69M/E70A/G107R/I90N/K202T/L105A/L119I/N104I/N87E/Q89R/Q94S/R106L/R155S/R180L/R86G/S101N/S121V/S35A/S48A/T118I/V36M/Y140S/Y91M); settings: cited from earlier work
[4] = system: HLA alleles; settings: cited from earlier work
[5] = system: IMEA cells; experiment: In vitro killing of IMEA HCC cells, with or without BALB/c splenocytes; format: cell-based, mouse; parameters: IMEA cell killing: unit of the concentration uncertain; settings: for enhanced killing of IMEA HCC: in vitro screening with T cells
Experimental: Prior to validation in human systems, a mouse system targeting hepatocellular carcinoma (HCC), the most common form of liver cancer, was used. IMEA is a murine HCC line of the H2^d haplotype, expressing the H2-D^d, H2-K^d, and H2-L^d allelic variants.
(§1) In a first set of experiments, drugs (e.g., small molecules) that bind IMEA MHC were selected from a database compiled using the in silico modeling and scoring methodology disclosed herein, and were tested for T cell stimulation and HCC killing in vitro. The crystal structure of H2-D^d was used as the basis for in silico selection of FDA-approved drugs predicted to bind the antigen binding cleft. DOCK6, a structure-based design program for early drug discovery (available for download at http://dock.compbio.ucsf.edu/) was used to screen 1,207 FDA approved small molecule drugs by parallel processing at the University of Florida High Performance Computing Center. An initial 1,207 FDA approved compounds were selected based upon their predicted ability to bind the HLA-A2 supertype, and thus their predicted efficacy across a wide swath of individuals. The top 40 scoring compounds were obtained from the National Cancer Institute Developmental Therapeutics Program.
IMEA cells were seeded in 24-well plates. At 30% confluence of IMEA cells, 0.5×10^6 of BALB/c mouse splenocytes were added to half of the wells. The compounds under evaluation were incubated with IMEA cells in concentrations […] and 1 mM, and supernatant was subsequently collected.

[6] = system: PBMCs from an HLA-A2 expressing individual (UF 86); experiment: Ex vivo T cell stimulation assay, flow cytometry, HLA-A2 expressing PBMCs; format: cell-based, human; settings: for autologous mixed lymphocyte reaction: HLA-A2 expressing cells, FIG. 5
Experimental: Third, top scoring compounds were tested for their ability to modulate proliferation of peripheral blood mononuclear cells (PBMCs) from healthy individuals using ex vivo T cell stimulation assays. Here, the drugs predicted to bind HLA-A2 (FIGS. 4A-4I) were tested using PBMCs from HLA-typed normal individuals. In assays, drugs were incubated with PBMCs (for up to 14 days), and functional characteristics of the responding T cell population were assayed utilizing flow cytometry (e.g., using antibodies specific for CD3 and CD8). PBMCs were stimulated with drugs at […] per ml with interleukin-2 (IL-2) supplemented on day 2. […] PBMCs from an HLA-A2 expressing individual (“UF 86” is homozygous for HLA-A*02:01) were incubated with a panel of drugs predicted to bind HLA-A2 by molecular docking. PBMCs from an individual lacking HLA-A2 (“UF 85”) served as a control for HLA allele specificity. Cells were stained with antibodies specific for CD3, CD8 (cytotoxic T lymphocyte markers), CD69, and CD107a (LAMP-1) (activation markers) to identify those drugs from the top scoring grouping that modify cytotoxic T lymphocyte activity.

[7] = system: H2-D^d T cells; experiment: In vitro T cell stimulation in the mouse HCC system; format: cell-based
Experimental: as §1
IMEA cells were seeded in 24-well plates. At 30% confluence of IMEA cells, 0.5×10^6 of BALB/c mouse splenocytes were added to half of the wells. The compounds under evaluation were incubated with IMEA cells in concentrations of 10 mM and 1 mM, and supernatant was subsequently collected.

In the case of `Nc1nc(NC2CC2)c2ncn([C@H]3C=C[C@@H](CO)C3)c2n1` [Abacavir], the “risk of a hypersensitivity reaction” value ([1]; HLA-B*57:01 patient) is given as roughly 50%, the “overall incidence rate of hypersensitivity” value ([1]; no genetic prescreening, HLA-B*57:01+ and HLA-B*57:01- individuals) is given as roughly 6% and the “immune response of PBMCs (interferon-γ, tumor necrosis factor-α, other inflammatory cytokines)” value [2] is given as “detectable immune response”. The “CD8+ T cell activity” value ([3]; by binding HLA-B*57:01) was “enhances” and the “polyclonal T cell responses” value ([3]; drug naïve individuals that carry the HLA-B*57:01 allele) was “stimulates”.
In the case of `CC1(C)S[C@@H]2[C@H](NC(=O)[C@H](N)c3ccccc3)C(=O)N2[C@H]1C(=O)O` [Aminopenicillins], the “HLA allele association(s) with adverse drug reaction” value (“HLA allele association(s)” for short) [4] is given as “A2, DRw52”.
In the case of `CC(=O)Oc1ccccc1C(=O)O` [Aspirin], the “HLA allele association(s)” value [4] is listed as “DPB1*03:01; also recorded: DRB1*13:02-DQB1*06:09”.
In the case of `CN1CCN(C2=Nc3cc(Cl)ccc3Nc3ccccc32)CC1` [Clozapine], the “HLA allele association(s)” value [4] is listed as “B38, DR4, DR2”.
In the case of `NNc1nncc2ccccc12` [Hydralazine], the “HLA allele association(s)” value [4] is listed as “DR4”.
In the case of `Cc1cc(NS(=O)(=O)c2ccc(N)cc2)no1` [Sulfamethoxazole], the “HLA allele association(s)” value [4] is given as “A30; B13; Cw6”.
For `CCOC(=O)CN[C@@H](C(=O)N1CC[C@H]1C(=O)NCc1ccc(/C(N)=N\O)cc1)C1CCCCC1` [Ximelagatran], the “HLA allele association(s)” value [4] is listed as “DRB1*07, DQA1*02; also recorded: DQB1*07:01”.
In the case of `Cl.Nc1ccn([C@@H]2O[C@H](CO)[C@@H](O)[C@@H]2O)c(=O)n1` [compound 63878], the IMEA cell killing ([5]; 1 (unit uncertain)) is reported as “killed” and the IMEA cell killing ([5]; 10 (unit uncertain)) is reported as “killed”.
In the case of `Nc1ncn([C@@H]2O[C@H](CO)[C@@H](O)[C@H]2O)c(=O)n1` [compound 102816], the IMEA cell killing ([5]; 10 (unit uncertain)) is reported as “killed”.
For `NC(=O)c1ncn([C@@H]2O[C@H](CO)[C@@H](O)[C@H]2O)n1` [compound 163039], the IMEA cell killing ([5]; 10 (unit uncertain)) was “killed”.
For `N[C@@H](Cc1ccc(N(CCCl)CCCl)cc1)C(=O)O` [compound 241286], the IMEA cell killing ([5]; 10 (unit uncertain)) was “killed”.
For `CC(C)(S)[C@@H](N)C(=O)O` [d-penicillamine], the “HLA allele association(s)” value [4] is listed as “B8, DR3, DR1”.
With `O=C(O)CNC(=O)C(Cl)Cl` [drug 3] the “autologous mixed lymphocyte reaction” value [6] was “inhibit”.
With `O=C(O)c1ccc(I)cc1O` [drug 10] the “autologous mixed lymphocyte reaction” value [6] was “inhibit”.
For `O=CC(Br)=C(Br)C(=O)O` [drug 11, 2,3-dibromo-4-oxobut-2-enoic acid], the “number of activated CD8+ cells” value ([6]; day 4, FIG. 5) was “enhances”.
For `N[C@@H](Cc1ccc(N(CCCl)CCCl)cc1)C(=O)O` [melphalan], the “enhanced killing of IMEA HCC” value [5] was “enhanced killing” and the “stimulation of H2-D^d T cells” value [7] was “stimulated”.
With `NC(=O)c1ncn([C@@H]2O[C@H](CO)[C@@H](O)[C@H]2O)n1` [ribavirin] the “enhanced killing of IMEA HCC” value [5] was “enhanced killing” and the “stimulation of H2-D^d T cells” value [7] was “stimulated”.
In the case of `Nc1ncn([C@@H]2O[C@H](CO)[C@@H](O)[C@H]2O)c(=O)n1` [vidaza], the “enhanced killing of IMEA HCC” value [5] is reported as “enhanced killing” and the “stimulation of H2-D^d T cells” value [7] is reported as “stimulated”.
In the case of Asparaginase, the “HLA allele association(s)” value [4] is listed as “DRB1*07:01”.
